Reference: US20100184684A1, “ANTIBACTERIAL AND ANTIFUNGAL PEPTIDES” (C3 JIAN, INC., priority 2009, published 2010)
Values after ≈ are worked out from the molar mass of the structure shown. Where two headings read alike, the source gives them in different places. Values belong to the compound of their own block, whether it stands above or below them. Peptide text beside a SMILES is read from it.

Columns and labels:
S. pneumoniae = type: cell-based, Streptococcus pneumoniae
Protocol: (§1) In certain embodiments the MIC assays are performed as described herein in the Examples. For each organism, the media and growth conditions utilized is detailed in Table 8.
(§2) In certain embodiments the MIC assays are performed as follows: For each organism, the media and growth conditions utilized is detailed in Table 8.

A. niger = type: cell-based, Aspergillus niger
Protocol: as §1, §2

T. rubrum = type: cell-based, Trichophyton rubrum
Protocol: as §1, §2

MRSA = type: cell-based, Staphylococcus aureus
Protocol: as §1, §2

S. epidermidis = type: cell-based
Protocol: as §1, §2

B. subtilis = type: cell-based, Bacillus subtilis
Protocol: as §1, §2

[1] = S. pneumoniae, TSB supplemented with 5% yeast extract, 37° C., 10% CO2, 10^6 CFU/ml

- MIC (S. pneumoniae): 50 µM (≈ 161 µg/mL)
Compound: CC(C)C[C@H](NC(=O)[C@H](CC(C)C)NC(=O)[C@H](Cc1c[nH]cn1)NC(=O)[C@H](CC(N)=O)NC(=O)[C@H](CCCCN)NC(=O)[C@H](CC(C)C)NC(=O)[C@H](CO)NC(=O)[C@H](CCCNC(=N)N)NC(=O)[C@H](CO)NC(=O)[C@H](C)NC(=O)[C@H](CCC(N)=O)NC(=O)[C@H](CCCCN)NC(=O)[C@H](CO)NC(=O)[C@H](C)NC(=O)[C@H](CCC(N)=O)NC(=O)[C@H](CCCCN)NC(=O)[C@H](CO)NC(=O)[C@H](C)NC(=O)[C@H](CCC(N)=O)NC(=O)[C@H](CCCCN)NC(=O)[C@H](CO)NC(=O)[C@H](C)NC(=O)[C@H](CCC(N)=O)NC(=O)[C@H](CCCCN)NC(=O)[C@H](CO)NC(=O)[C@H](C)NC(=O)[C@H](CCC(N)=O)NC(=O)[C@H](CCCCN)NC(=O)[C@H](CO)NC(=O)[C@H](C)N)C(=O)O [PF-523] (H-ASKQASKQASKQASKQASKQASRSLKNHLL-OH; N-terminus and C-terminus assumed)

- MIC (T. rubrum): 50 µM (≈ 156 µg/mL)
- MIC (MRSA): 50 µM (≈ 156 µg/mL)
- MIC (A. niger): 50 µM (≈ 156 µg/mL)
Compound: CC[C@H](C)[C@H](NC(=O)[C@H](C)NC(=O)[C@@H]1CCCN1C(=O)[C@H](Cc1ccccc1)NC(=O)[C@@H]1CCCN1C(=O)[C@H](CC(C)C)NC(=O)[C@@H](N)C(C)C)C(=O)N1CCC[C@H]1C(=O)N[C@@H](CC(C)C)C(=O)N[C@@H](CO)C(=O)N[C@@H](CCCNC(=N)N)C(=O)N[C@@H](CCCNC(=N)N)C(=O)N[C@@H](CCCNC(=N)N)C(=O)N[C@@H](C)C(=O)N[C@@H](CS)C(=O)N[C@H](C(=O)N[C@@H](C)C(=O)N[C@@H](C)C(=O)N1CCC[C@H]1C(=O)N[C@@H](CCCNC(=N)N)C(=O)N1CCC[C@H]1C(=O)N[C@@H](CCCNC(=N)N)C(=O)N[C@@H](CO)C(=O)N[C@@H](CCCNC(=N)N)C(=O)N[C@@H](CCC(N)=O)C(=O)N[C@@H](CCCNC(=N)N)C(=O)N[C@@H](C)C(=O)N[C@@H](CO)C(=O)O)C(C)C [PF-168] (H-VLPFPAIPLSRRRACVAAPRPRSRQRAS-OH; N-terminus and C-terminus assumed)

- MIC (MRSA): 50 µM (≈ 152 µg/mL)
- MIC (S. epidermidis): 50 µM (≈ 152 µg/mL)
Compound: CC[C@H](C)[C@H](NC(=O)[C@H](CC(N)=O)NC(=O)[C@@H](NC(=O)[C@H](Cc1ccccc1)NC(=O)[C@H](CCC(=O)O)NC(=O)CNC(=O)[C@H](CCC(N)=O)NC(=O)[C@H](Cc1ccccc1)NC(=O)[C@@H](N)CCCCN)[C@@H](C)O)C(=O)NCC(=O)N[C@@H](CCC(N)=O)C(=O)N[C@@H](CO)C(=O)N[C@@H](Cc1ccc(O)cc1)C(=O)N[C@H](C(=O)N[C@H](C(=O)N[C@@H](CO)C(=O)N[C@@H](C)C(=O)N[C@@H](CO)C(=O)N[C@@H](Cc1c[nH]cn1)C(=O)N[C@@H](CCSC)C(=O)N[C@@H](CO)C(=O)N[C@H](C(=O)N[C@@H](CO)C(=O)N[C@@H](CC(C)C)C(=O)N[C@@H](CC(N)=O)C(=O)N[C@H](C(=O)NCC(=O)N[C@@H](CCCCN)C(=O)O)[C@@H](C)O)[C@@H](C)O)C(C)C)[C@@H](C)CC [PF-583] (H-KFQGEFTNIGQSYIVSASHMSTSLNTGK-OH; N-terminus and C-terminus assumed)

- MIC (B. subtilis): 50 µM (≈ 161 µg/mL)
- MIC (A. niger): 50 µM (≈ 161 µg/mL)
Compound: CSCC[C@H](NC(=O)[C@H](CCCNC(=N)N)NC(=O)[C@H](CCCNC(=N)N)NC(=O)[C@H](CC(C)C)NC(=O)[C@H](CCCNC(=N)N)NC(=O)[C@H](CCC(=O)O)NC(=O)[C@@H](NC(=O)[C@H](CS)NC(=O)CNC(=O)[C@H](CCCNC(=N)N)NC(=O)[C@@H](N)CCCNC(=N)N)[C@@H](C)O)C(=O)N[C@@H](C)C(=O)N[C@@H](CCCNC(=N)N)C(=O)N[C@@H](CCCNC(=N)N)C(=O)N[C@@H](CC(N)=O)C(=O)N[C@@H](C)C(=O)N[C@@H](Cc1c[nH]c2ccccc12)C(=O)N[C@@H](CC(=O)O)C(=O)N[C@@H](CC(C)C)C(=O)N[C@@H](Cc1ccc(O)cc1)C(=O)N[C@@H](C)C(=O)N[C@@H](CCC(=O)O)C(=O)N[C@@H](Cc1c[nH]cn1)C(=O)N[C@@H](Cc1ccccc1)C(=O)N[C@@H](Cc1ccc(O)cc1)C(=O)O [PF-148] (H-RRGCTERLRRMARRNAWDLYAEHFY-OH; N-terminus and C-terminus assumed)

- MIC (B. subtilis): 50 µM (≈ 136 µg/mL)
Compound: CC[C@H](C)[C@H](NC(=O)[C@H](Cc1ccccc1)NC(=O)[C@@H](NC(=O)[C@H](Cc1ccccc1)NC(=O)[C@H](CC(C)C)NC(=O)[C@H](CC(=O)O)NC(=O)[C@@H](NC(=O)[C@H](CS)NC(=O)[C@@H](NC(=O)[C@H](CCCNC(=N)N)NC(=O)[C@H](CC(C)C)NC(=O)[C@@H](NC(=O)[C@@H](N)CC(C)C)C(C)C)[C@@H](C)CC)[C@@H](C)O)[C@@H](C)O)C(=O)N[C@@H](CCCCN)C(=O)N[C@@H](Cc1c[nH]c2ccccc12)C(=O)N[C@H](C(=O)N[C@H](C(=O)N[C@@H](CCCCN)C(=O)N[C@@H](CCC(N)=O)C(=O)N[C@@H](CCCNC(=N)N)C(=O)N[C@@H](CCCCN)C(=O)N[C@@H](CO)C(=O)O)[C@@H](C)CC)[C@@H](C)O [PF-497] (H-LVLRICTDLFTFIKWTIKQRKS-OH; N-terminus and C-terminus assumed)

- MIC (B. subtilis): 25 µM (≈ 49 µg/mL)
- MIC (MRSA): 50 µM (≈ 98 µg/mL)
- MIC (A. niger): 50 µM (≈ 98 µg/mL)
Compound: CC[C@H](C)[C@H](NC(=O)[C@H](CCCNC(=N)N)NC(=O)[C@H](CCCNC(=N)N)NC(=O)[C@H](CCCNC(=N)N)NC(=O)[C@@H](NC(=O)[C@H](CCSC)NC(=O)[C@H](CC(=O)O)NC(=O)[C@H](C)NC(=O)[C@H](CCSC)NC(=O)[C@H](C)NC(=O)[C@@H](NC(=O)[C@H](CC(C)C)NC(=O)[C@H](CCCCN)NC(=O)[C@H](CO)NC(=O)[C@H](CCC(=O)O)NC(=O)[C@@H](N)CCCNC(=N)N)[C@@H](C)CC)[C@@H](C)CC)C(=O)O [PF-545] (H-RESKLIAMADMIRRRI-OH; N-terminus and C-terminus assumed)

The next lines start with the compound.

Compound: CC(C)C[C@H](NC(=O)CNC(=O)[C@@H](N)CC(C)C)C(=O)N[C@H](C(=O)N[C@@H](C)C(=O)NCC(=O)N[C@H](C(=O)N[C@@H](C)C(=O)N[C@@H](Cc1ccc(O)cc1)C(=O)N[C@@H](C)C(=O)N[C@@H](C)C(=O)N[C@@H](CCC(N)=O)C(=O)N1CCC[C@H]1C(=O)N[C@H](C(=O)N[C@@H](CC(N)=O)C(=O)N[C@@H](CCC(N)=O)C(=O)N1CCC[C@H]1C(=O)N[C@H](C(=O)N[C@@H](CC(N)=O)C(=O)N[C@@H](CCC(N)=O)C(=O)N1CCC[C@H]1C(=O)N[C@H](C(=O)N[C@@H](CC(N)=O)C(=O)N[C@@H](CCC(N)=O)C(=O)N1CCC[C@H]1C(=O)N[C@H](C(=O)N[C@@H](CC(N)=O)C(=O)N[C@@H](CCC(N)=O)C(=O)N1CCC[C@H]1C(=O)N[C@H](C(=O)N[C@@H](CC(N)=O)C(=O)N[C@@H](CCC(N)=O)C(=O)N1CCC[C@H]1C(=O)N[C@H](C(=O)N[C@@H](CC(N)=O)C(=O)N[C@@H](CCC(N)=O)C(=O)N1CCC[C@H]1C(=O)N[C@@H](CCCNC(=N)N)C(=O)N[C@@H](Cc1c[nH]c2ccccc12)C(=O)O)[C@@H](C)O)[C@@H](C)O)[C@@H](C)O)[C@@H](C)O)[C@@H](C)O)[C@@H](C)O)C(C)C)[C@@H](C)O [PF-520] (H-LGLTAGVAYAAQPTNQPTNQPTNQPTNQPTNQPTNQPRW-OH; N-terminus and C-terminus assumed)
- MIC (S. pneumoniae; [1]): 50 µM (≈ 211 µg/mL)

Compound: CC(C)C[C@H](NC(=O)[C@H](CCC(N)=O)NC(=O)[C@H](CO)NC(=O)[C@H](CCC(N)=O)NC(=O)[C@H](CC(C)C)NC(=O)[C@@H](N)CO)C(=O)NCC(=O)N1CCC[C@H]1C(=O)N[C@@H](CS)C(=O)N[C@@H](CC(C)C)C(=O)N[C@@H](Cc1c[nH]cn1)C(=O)N[C@@H](CC(=O)O)C(=O)N[C@@H](CCC(N)=O)C(=O)N[C@@H](CCCNC(=N)N)C(=O)N[C@@H](Cc1c[nH]cn1)C(=O)O [PF-448] (H-SLQSQLGPCLHDQRH-OH; N-terminus and C-terminus assumed)
- MIC (A. niger): 25 µM (≈ 43 µg/mL)
- MIC (S. pneumoniae): 50 µM (≈ 85.9 µg/mL)

Compound: CSCC[C@H](NC(=O)[C@H](CCC(=O)O)NC(=O)[C@H](CO)NC(=O)[C@@H](N)CC(C)C)C(=O)N[C@@H](CCC(=O)O)C(=O)N[C@@H](CCCNC(=N)N)C(=O)N[C@@H](CCCNC(=N)N)C(=O)N[C@@H](CCCNC(=N)N)C(=O)N[C@@H](CC(C)C)C(=O)N[C@@H](CCCNC(=N)N)C(=O)N[C@@H](CCCCN)C(=O)N[C@@H](CCCNC(=N)N)C(=O)N[C@@H](C)C(=O)O [PF-529] (H-LSEMERRRLRKRA-OH; N-terminus and C-terminus assumed)
- MIC (A. niger): 50 µM (≈ 85.1 µg/mL)
- MIC (S. pneumoniae): 50 µM (≈ 85.1 µg/mL)

Compound: CC(C)[C@H](NC(=O)[C@H](C)NC(=O)[C@H](Cc1ccc(O)cc1)NC(=O)[C@@H](N)CC(N)=O)C(=O)N[C@H](C(=O)N[C@@H](CO)C(=O)N[C@@H](Cc1c[nH]cn1)C(=O)N[C@H](C(=O)O)[C@@H](C)O)C(C)C [PF-209] (H-NYAVVSHT-OH; N-terminus and C-terminus assumed)
- MIC (MRSA): 50 µM (≈ 44.5 µg/mL)

Compound: CC[C@H](C)[C@H](NC(=O)[C@H](CCC(=O)O)NC(=O)[C@@H]1CCCN1C(=O)[C@H](CCSC)NC(=O)[C@H](Cc1ccccc1)NC(=O)[C@@H](N)CO)C(=O)N[C@@H](CCC(N)=O)C(=O)N[C@@H](CCCCN)C(=O)N[C@@H](CC(N)=O)C(=O)N[C@H](C(=O)N[C@H](C(=O)N1CCC[C@H]1C(=O)N[C@H](C(=O)N[C@@H](CCC(N)=O)C(=O)N[C@@H](CCSC)C(=O)N[C@@H](CCCCN)C(=O)O)[C@@H](C)O)[C@@H](C)CC)[C@@H](C)O [PF-512] (H-SFMPEIQKNTIPTQMK-OH; N-terminus and C-terminus assumed)
- MIC (S. pneumoniae; [1]): 50 µM (≈ 94.7 µg/mL)

Compound: CC[C@H](C)[C@H](NC(=O)[C@H](CC(C)C)NC(=O)[C@@H]1CCCN1C(=O)[C@@H]1CCCN1C(=O)[C@H](CCCCN)NC(=O)[C@@H](NC(=O)[C@H](Cc1ccc(O)cc1)NC(=O)[C@H](CC(C)C)NC(=O)[C@H](CO)NC(=O)[C@H](CCC(N)=O)NC(=O)[C@H](CCSC)NC(=O)[C@@H](N)C(C)C)C(C)C)C(=O)N[C@@H](CC(C)C)C(=O)N[C@H](C(=O)N[C@H](C(=O)N[C@@H](CCCCN)C(=O)N[C@@H](CC(C)C)C(=O)N[C@@H](C)C(=O)N[C@@H](CCC(N)=O)C(=O)N[C@@H](CCC(N)=O)C(=O)N[C@@H](CC(N)=O)C(=O)O)[C@@H](C)O)C(C)C [PF-511] (H-VMQSLYVKPPLILVTKLAQQN-OH; N-terminus and C-terminus assumed)
- MIC (S. pneumoniae; [1]): 50 µM (≈ 119 µg/mL)
